In patent US20220142958A1, “MEDICINAL COMPOSITION HAVING EXCELLENT STABILITY” (EA Pharma Co., Ltd., priority 2019, published 2022):

Tests used:
[1] = Example 3: storage stability of formulations at 5° C., 15° C. and 25° C.; type: physicochemical
Description: Compound A1 weighed so as to have the composition shown in Table 7 below and each of the buffer solutions were dissolved in water for injection to obtain a uniform solution. These solutions were filled in glass ampoules and sealed. Each pH in Example 3 was measured during each storage period using a pH meter HM-30R (manufactured by DKK-TOA CORPORATION).
The residual ratio of Compound A1 and the production of each of the decomposition products at 5° C., 15° C., and 25° C. were evaluated according to a test method described below.
Test method: In the solution after the storage, the residual ratio was analyzed according to a normal method using a liquid chromatography apparatus (ACQUITY UPLC H-Class; measurement wavelength: 210 nm). At this time, XSELECT CSH C18 (2.1 mm×100 mm, 3.5 μm, manufactured by Waters Corporation) was used as a column.
Calculation for obtaining the residual ratio (%) of Compound A1 and each of the decomposition products (%) during each storage period is as follows.
Residual ratio (%) of Compound A1=peak area of Compound A1 in sample solution/sum of peak area of sample solution×100
Each of decomposition products (%)=peak area of each of decomposition products in sample solution/sum of peak area of sample solution×100

serum Ca concentration = assay: Serum Ca concentration in bilaterally nephrectomized rats after single intravenous administration; type: in vivo, rat
Excerpt: After quarantine and acclimatization periods of 6 days, fifty-one rats (Crl: CD (SD), male) aged 7 weeks were fed a 100% sucrose diet ad libitum from four days before the surgery. On the day of the surgery, skin incisions were made on the back at the sites of the right and left kidneys under isoflurane anesthesia and the renal capsules were removed to ligate the renal arteries and veins and the ureters using threads before removing the right and left kidneys. A penicillin solution was given upon suturing, and 5 mL of physiological saline was intraperitoneally administered before returning the rats into the breeding cages.
On the day of administering the test substance, for example, a day after the bilaterally nephrectomy, approximately 100 μL of blood was collected from the tail vein without anesthesia using a capillary tube, which was centrifuged in a high speed refrigerated microcentrifuge (10,000 rpm, 5 min, 4° C.) to separate the serum. Thereafter, the serum Ca concentration was measured with a dri-chemanalyzer (model number: FUJI DRI-CHEM 7000, manufacturer: FUJI FILM Medical Co., Ltd.) to select individuals with a serum Ca concentration of 8.0 mg/dL or more and less than 14.0 mg/dL.
On a day after the bilaterally nephrectomy, the given doses were calculated based on the weight of the selected animals on that day. Group 1 was given a medium (physiological saline), Groups 2, 3 and 4 were given the Compound A1 solution (0.3, 3 and 30 mg/mL, respectively), and Groups 5, 6, 7 and 8 (5 rats per group) were given the comparative compound (0.3, 1, 3 and 10 mg/mL, respectively), each given a single dose of 1 ml/kg from the tail vein. Prior to the administration (0 hours), and 24 and 48 hours after the administration, approximately 300 μL of blood was collected without anesthesia from the tail vein using capillary tubes for obtaining the serum. The blood for obtaining the serum was left to stand at room temperature, and centrifuged in a high speed refrigerated microcentrifuge (10,000 rpm, 5 min, 4° C.) within a period of 30 minutes to 2 hours after the blood collection to collect the serum.
Thereafter, the serum Ca was analyzed with COBAS analyzer (Model number: COBAS INTEGRA 400 plus, manufacturer: Roche Diagnostics K.K.), and the remaining serum was stored in an ultra-low freezer (temperature set to −80±15° C.) until the day of iPTH measurement. On the day of iPTH measurement, the serum was melted at room temperature for measurement.
A 30 mg/ml Compound A1 solution ([…] of Compound A1 dissolved in 10 ml of physiological saline) was diluted with physiological saline to prepare 0.3 mg/ml and […] Compound A1 solutions.
149 mg of etelcalcetide (Ac-c(C) arrrar-NH2) TFA salt (WO 2011/014707 A) was prepared to have pH of 6 to 8 with 7 ml of physiological saline and a 0.5N aqueous NaOH solution, and physiological saline was further added thereto to make 10 ml. The prepared 10 mg/ml comparative compound solution was diluted with physiological saline to obtain 0.3 mg/ml and 1 mg/ml comparative compound solutions.

serum iPTH = assay: Estimation of EC50, PK and clinically effective dose in patients with renal failure; design: species or system human
Excerpt: EC50 value in patient with renal failure was estimated based on the calculated EC50 value in healthy adults and the results from the same analysis in normal rats and adenine-treated rat models (pathological rat models). […] Since the difference in the EC50 value between rats in normal state and pathological state is presumed to be caused by the changes in PK that are considered to greatly vary between normal state and pathological state, similar tendency is expected in human as well.
The result from PK fitting, and the contribution rate of renal elimination of the drug (3.2%) calculated using PK-sim (registered trademark) were used to simulate PK prediction in the patients with renal failure. […] As a result, administration of a dose of 0.06 mg/man was estimated to maintain a concentration higher than 1.4 ng/mL for 72 hours (FIG. 2-8).

[2] = tested on: SHPT patients on maintenance hemodialysis; assay: Phase I/II clinical trial, repeated administration; type: in vivo, human; settings: for percentage decrease in the serum iPTH concentration: Day 22 (three days after the ninth administration)
Description: Targeting SHPT patients on maintenance hemodialysis, pharmacokinetics, pharmacodynamics and safety upon single or repeated intravenous administration of Compound A1 were examined by conducting a double-blind test using a placebo as a control.
Repeated administration: Based on the clinically effective dose calculated in Reference Example 5, the doses were given in 3 steps, namely, 0.05 mg, 0.1 mg, and 0.2 mg. The trial drug was (intravenously) infused from the venous side of the dialysis circuit before the end of dialysis three times a week for 22 days (total of 9 times) starting from the first day of administration of the trial drug. Here, the trial drug was administered by diluting a required dose taken from the Compound A1 vial formulation prepared as follows with sterilized water for injection, and filling a syringe with the resultant in accordance with the dose to be administered.
Each item was evaluated according to the predetermined evaluation schedule.
A vial formulation encapsulating 1 mg of Compound A1 in terms of a dehydrate, and sodium chloride, disodium hydrogen phosphate dodecahydrate, and sodium dihydrogen phosphate dihydrate as additives in 10 ml of sterilized water for injection

SMILES: Cc1c(Cl)cc(S(=O)(=O)[O-])cc1NC(=O)NC[C@H](N)C(=O)O.[Na+] [Compound A1, sodium 3-{[(2S)-2-amino-2-carboxyethyl]carbamoylamino}-5-chloro-4-methylbenzenesulfonate]
- storage stability ([1]; formulations in the pH range of 6.4 to 6.9, 5° C., for 30 months): excellent storage stability
- storage stability ([1]; formulations in the pH range of 6.4 to 6.9, 15° C., for 12 months): excellent storage stability
- storage stability ([1]; formulations in the pH range of 6.4 to 6.9, 25° C. (60% RH), for 6 months): excellent storage stability
- mean serum Ca concentration (serum Ca concentration; 0.3 mg/kg single i.v., 24 hours after the administration): 9.07 mg/dL
- mean serum Ca concentration (serum Ca concentration; 0.3 mg/kg single i.v., 48 hours after the administration): 10.24 mg/dL
- mean serum Ca concentration (serum Ca concentration; 3 mg/kg single i.v., 24 hours after the administration): 7.97 mg/dL
- mean serum Ca concentration (serum Ca concentration; 3 mg/kg single i.v., 48 hours after the administration): 8.55 mg/dL
- mean serum Ca concentration (serum Ca concentration; 30 mg/kg single i.v., 24 hours after the administration): 7.99 mg/dL
- mean serum Ca concentration (serum Ca concentration; 30 mg/kg single i.v., 48 hours after the administration): 8.14 mg/dL
- lower limit value of the serum Ca concentration (simulated) (serum Ca concentration; logistic curve fitting, 48 hours after the administration vs given dose): 8.072 mg/dL
- dose estimated to maintain a concentration higher than 1.4 ng/mL for 72 hours (serum iPTH; PK simulation): 0.06 mg/man
- EC50 (estimated) (serum iPTH; scaling factor applied to human): > 1.4 ng/mL
- percentage decrease in the serum iPTH concentration ([2]; 0.05 mg dose group): 8%
- percentage decrease in the serum iPTH concentration ([2]; 0.1 mg dose group): 25%
- percentage decrease in the serum iPTH concentration ([2]; 0.2 mg dose group): 36%
- accumulating property ([2]; repeated administration): no accumulating property
- elimination by dialysis ([2]; repeated administration): rapidly eliminated by dialysis
- trough concentration before the dialysis following the longest interval ([2]; repeated administration): generally constant
- decrease in the corrected Ca ([2]; repeated administration, 0.05 mg dose group (mild)): observed
- decrease in the corrected Ca ([2]; repeated administration, 0.1 mg dose group): not observed
- decrease in the corrected Ca ([2]; repeated administration, 0.2 mg dose group (mild)): observed
- form present in the plasma ([2]; repeated administration, three times a week for 22 days): mainly as an unchanged substance
